The test has as its target T1, Aromatase (Rattus norvegicus, UniProt P22443).
T1 construct: Infantile weibliche Ratten reagieren auf PMSG-Behandlung mit einheitlich erhöhter Steroidsynthese; from tissue; host or cells: living infantile female rats (whole animal); estradiol measured in serum by radioimmunoassay
T1 sequence (P22443 1-508): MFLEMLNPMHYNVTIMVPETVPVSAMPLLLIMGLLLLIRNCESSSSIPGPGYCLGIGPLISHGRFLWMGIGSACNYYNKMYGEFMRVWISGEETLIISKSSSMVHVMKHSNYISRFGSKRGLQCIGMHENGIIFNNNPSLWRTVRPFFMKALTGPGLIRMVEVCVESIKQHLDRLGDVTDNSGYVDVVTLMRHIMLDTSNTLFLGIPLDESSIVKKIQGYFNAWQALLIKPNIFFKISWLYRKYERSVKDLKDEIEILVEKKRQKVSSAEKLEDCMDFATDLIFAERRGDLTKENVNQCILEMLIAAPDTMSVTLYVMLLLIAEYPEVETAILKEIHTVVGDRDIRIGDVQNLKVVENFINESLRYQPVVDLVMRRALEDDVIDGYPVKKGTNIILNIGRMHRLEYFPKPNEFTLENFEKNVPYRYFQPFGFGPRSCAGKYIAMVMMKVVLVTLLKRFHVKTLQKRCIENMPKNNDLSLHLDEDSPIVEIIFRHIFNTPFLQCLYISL
The test is described as follows: PMSG (Pregnant Mare's Serum Gonadotropin) test: effect on PMSG-stimulated serum estradiol after oral application. To be noted: 10 mg/Tier 2 x p.o.; for Östradiol-Konzentration in: peripheral serum of PMSG-pretreated infantile female rats, 24 h after last PMSG application, mean ± standard deviation, n = 10; for relative Wirkstärke: relative potency versus compound A (= 1,0), by regression and covariance analysis, rat. It counts as in vivo, Ratte. The source says: So konnte zum Beispiel im sogenannten PMSG (Pregnant Mare's Serum Gonadotropin)-Test [J. Steroid. Biochem. 7, (1976) 787] gezeigt werden, daß im Vergleich zu dem bekannten Aromatasehemmer 19-Methylthio-4-androsten-3,17-dion (A) die erfindungsgemäßen Verbindungen, wie zum Beispiel 15α-Ethyl-19-methylthio-4-androsten-3,17-dion (B), bei oraler Applikation eine stärkere Wirkung besitzen.
Infantile weibliche Ratten reagieren auf PMSG-Behandlung mit einheitlich erhöhter Steroidsynthese. Die Aromataseaktivität kann durch die Beeinflussung der PMSG-stimulierten Östrogenbildung gemessen werden.
Im PMSG-Test werden 21 Tage alte weibliche Ratten alle 2 Tage insgesamt 7 mal mit je 100 I.U. PMSG subkutan vorbehandelt. 1 Stunde vor und 8 Stunden nach der letzten PMSG-Applikation (d₁₂) erhalten die Tiere die Testsubstanz durch orale Applikation.
Die Kontrolltiere erhalten nur das Vehikel. 24 Stunden nach der letzten PMSG-Applikation werden die Tiere getötet. Im Serum wird Östradiol radioimmunologisch geprüft. Für jede Gruppe von 10 Tieren wird der Mittelwert der Östradiolkonzentration in nMol/l mit der Standardabweichung errechnet. Die Signifikanzen der Unterschiede zur Kontrollgruppe werden durch die Varianzanalyse geprüft.
Zur Ermittlung der relativen Wirkungsstärke der zu testenden Substanz im Vergleich zu der Vergleichssubstanz wird die Regressions- und Kovarianzanalyse durchgeführt. Ferner wird die prozentuale Hemmung gegen die PMSG-Kontrolle berechnet.

From EP0289450A1, “15-Alkyl-19-thio-androst-4-en-3,17 diones, process for their preparation and pharmaceutical compositions containing them” (SCHERING AKTIENGESELLSCHAFT, priority 1987, dated 1988) come the findings set out here.

Turning to `CSC[C@]12CCC(=O)C=C1CC[C@@H]1[C@@H]2CC[C@]2(C)C(=O)CC[C@@H]12` [A, 19-Methylthio-4-androsten-3,17-dion], the “Östradiol-Konzentration in” value is reported as 5,50 ± 0,43 nMol/l and the “relative Wirkstärke” value was 1,0.
On to `CC[C@H]1CC(=O)[C@@]2(C)CC[C@H]3[C@@H](CCC4=CC(=O)CC[C@@]43CSC)[C@H]12` [B, 15α-Ethyl-19-methylthio-4-androsten-3,17-dion], for which the “Östradiol-Konzentration in” value is 4,05 ± 0,36 nMol/l and the “relative Wirkstärke” value is reported as 3,2.
